# Source: patent US20110027348A1, “COMPOSITION AND METHOD INHIBITING INFLAMMATION” (priority 2007, published 2011)
# Assays:
# [1] = system: neurogenic inflammation evoked by capsaicin; assay: Capsaicin-evoked neurogenic inflammation in newborn rats (Example I/2); type: in vivo, Sprague Dawley rats
# Protocol: Neurogenic inflammation was evoked in newborn ([…]) Sprague Dawley rats by intraperitoneal administration of capsaicin (50 mg/kg of body mass) as described in the literature (Acta Physiol. Hung. 1987; 69(3-4):323-32). Twenty-four hours before capsaicin injection 10 ml intravenous infusions each of CoQ10, or omega 3+vitamin E, or omega 3+vitamin E+CoQ10 were applied. Each of these combinations contained 1.0 g omega 3, 10 mg vitamin E and 10 mg CoQ10. […] Hypotensive shock and subsequent death were prevented by pre-treatment with omega 3+vitamin E in 26% and in the omega 3+vitamin E+CoQ10 in 64%, while in the control group only 22% survived. […] Six weeks after the capsaicin injection, corneal transparency and sensitivity returned to normal in the pre-treated groups, while in the control group reduced transparency and sensitivity were observed.
# [2] = system: retinal pigment epithelial (RPE) cells; assay: Retinal cell culture, growth and differentiation of RPE cells (Example I/6); type: cell-based, Wistar rats; settings: 7 day stage, morphometric analysis, control 0%
# Protocol: The aim of this study was to reveal the influence of omega 3 fatty acids, Vitamin E, CoQ10 and LB separately or in combination on the development and differentiation of retinal cells in culture (in vitro). Retinas of newborn (1-2 days) Wistar rats were isolated. and cultured as described in our previous paper (Int. J. Dev. Neurosc. 1998 August; 16(5):423-32). In six different combinations, the culture medium contained 10 g omega 3 fatty acids, 100 mg vitamin E, 100 mg CoQ10 and 0.05 microgram LB per 100 ml. At the 7 day stage size and differentiation of retinal pigment epithelial (RPE) cells were determined by morphometric analysis, as described in the cited work.
# TNF-alpha = assay: LPS-evoked immunogenic inflammation, TNF-alpha levels in monocyte/macrophage culture (Example I/1); type: cell-based; settings: RAW 264,7 culture, control 0%
# Protocol: The purpose of this experimental model was to measure inhibitory influence of omega 3 fatty acids, vitamin E and CoQ10 separately and in combination, using methods disclosed in literature (J. Surg Res. 2002 September; 107(1):135-139). For evoking inflammation bacterial endotoxin (LPS) was used and changes in levels of a proinflammatory cytokin, TNF-alpha were measured in a monocyte/macrophage (RAW 264,7) culture. It is clear that both combinations show inhibition of inflammation, the 3 member combination a considerably higher one.
SMILES,"Neurogenic inflammation, acute features (survival; hypotensive shock and subsequent death prevented) ([1]; 10 ml i.v. infusion 24 hours before capsaicin 50 mg/kg i.p., control 22%) [%]","Neurogenic inflammation, chronic features ([1]; 10 ml i.v. infusion 24 hours before capsaicin, six weeks after capsaicin, control 20%) [%]",RPE differentiation [2] [%],RPE growth [2] [%],Decrease in proinflammatory cytokine levels in immunogenic inflammation: TNF-alpha (TNF-alpha) [%]
"COC1=C(OC)C(=O)C(C/C=C(\C)CC/C=C(\C)CC/C=C(\C)CC/C=C(\C)CC/C=C(\C)CC/C=C(\C)CC/C=C(\C)CC/C=C(\C)CC/C=C(\C)CCC=C(C)C)=C(C)C1=O [CoQ10, ubiquinone 10]",22,25,3,1,−3
CC(=O)Oc1ccccc1C(=O)O [aspirin],–,–,–,–,−21
